The source of these data is patent US8859621B2, “Pharmaceutical formulations of modafinil” (Cephalon, Inc., priority 2002, dated 2014).

Data set [1] is described as follows: human blood plasma concentration curve of modafinil. The data set is classed as in vivo. As for the experimental part: FIG. 1 represents a human blood plasma concentration curve of modafinil after an initial dose of 100 mg of modafinil followed 4 hours later by a 200 mg dose of modafinil.
FIG. 2 represents a human blood plasma concentration curve of modafinil after an initial dose of 200 mg of modafinil followed 4 hours later by a 100 mg dose of modafinil.
FIG. 3 represents a human blood plasma concentration curve of modafinil after a single dose of 300 mg of modafinil.
FIG. 4 represents a human blood plasma concentration curve of modafinil after a single dose of 100 mg of modafinil.

The subject of a further data set is ADHD patients. Description: Example 2: 2-week fixed-dose study of 340 mg and 425 mg in children with ADHD. Conditions: 340 mg (<30 kg) or 425 mg (>=30 kg) single dose per day, 2 weeks, baseline score 46.3. The data set is classed as in vivo, human. As for the experimental part: Safety and efficacy of the fixed doses of 340-mg and 425-mg were evaluated following a 2-week dosing period (1-week of titration and 1-week at steady state). The 340-mg dose was administered to children weighing <30 kg, and the 425-mg dose was administered to children weighing ≧30 kg.
The 24 children enrolled in this study were predominately male (17M:7F) and predominately white (13W:9B:2Other). The average age (9.0 yrs), weight (32.9 kg) and height (133.7 cm) were similar to those seen in previous ADHD trials in children. The children <30 and ≧30 kg were approximately equaled divided. The average Attention Deficit Hyperactivity Disorder Rating Scale (ADHD-RS) total score at baseline was 46.3.

Data set [2] relates to children with moderate to severe ADHD. Description: Example 1: 4-week placebo-controlled study of modafinil in children with ADHD. Type of data set: in vivo, human. Conditions: for ADHD symptoms, primary outcome measure (teacher rated ADHD Rating Scale-IV): vs placebo. As for the experimental part: A group of 248 children (average age: 9 years, average weight: 35.5 kilograms) were studied to determine the effect of modafinil on ADHD.
After a 1 week washout period, children with moderate to severe ADHD received 4 weeks of treatment with placebo or modafinil in split morning/midday dosages of 100/200 mg, 200/100 mg, a single 300 mg dose, and 200/200 mg (400 mg total). Randomization called for equal distribution of the children by weight, except for the 200/200 mg dose group, which contained only children having a weight greater than or equal to 30 kg. The primary efficacy measure was the teacher rated ADHD Rating Scale-IV.

With `NC(=O)C[S+]([O-])C(c1ccccc1)c1ccccc1` (centres unmarked) [modafinil, 2-[(diphenylmethyl)sulfinyl]acetamide], the “blood concentrations of modafinil, amount less than predicted” value in data set [1] (single dose of 300 mg vs extrapolation of 100 mg unit dose data, FIG. 3) was 20-30%. Moreover, the “time post administration at which the blood level of modafinil begins to decrease” value in data set [1] (single dose of 300 mg, FIG. 3) is recorded as “about 2 hours”. Moreover, in data set [1] (split dose 100 mg then 200 mg or 200 mg then 100 mg 4 hours later, FIGS. 1 and 2), the “time post administration at which the blood plasma concentration of modafinil begins to decrease” value is recorded as “about two”. The “improvement of ADHD-RS total score from baseline” value in the data set with ADHD patients is around 70%. Besides, the adverse event profile entry in data set [2] (400 mg of modafinil (200/200 mg) vs the other doses) is on record as “higher adverse event profile than the other doses”. Further, the safety and tolerability result in data set [2] (children, 4 weeks of treatment, 300 to 400 mg total daily) was “safe and generally well tolerated”. Also, the “ADHD symptoms, primary outcome measure (teacher rated ADHD Rating Scale-IV)” value is listed as “significantly improved ADHD symptoms” in data set [2] (children, single 300 mg once daily dose, 4 weeks of treatment) and “significantly improved ADHD symptoms” in data set [2] (children, split morning/midday dose 200/100 mg, 4 weeks of treatment).
